Measured values from patent US7579012B2, “Targeting of triacylglycerol synthase gene for tuberculosis treatment” (University of Central Florida Research Foundation, Inc., priority 2005, dated 2009).

Molecular target: T1, TGS1 (Mycobacterium tuberculosis, UniProt P9WKC9)
T1 construct: made in house; host or cells: E. coli (total cell lysate, not purified)
T1 sequence (P9WKC9 1-463): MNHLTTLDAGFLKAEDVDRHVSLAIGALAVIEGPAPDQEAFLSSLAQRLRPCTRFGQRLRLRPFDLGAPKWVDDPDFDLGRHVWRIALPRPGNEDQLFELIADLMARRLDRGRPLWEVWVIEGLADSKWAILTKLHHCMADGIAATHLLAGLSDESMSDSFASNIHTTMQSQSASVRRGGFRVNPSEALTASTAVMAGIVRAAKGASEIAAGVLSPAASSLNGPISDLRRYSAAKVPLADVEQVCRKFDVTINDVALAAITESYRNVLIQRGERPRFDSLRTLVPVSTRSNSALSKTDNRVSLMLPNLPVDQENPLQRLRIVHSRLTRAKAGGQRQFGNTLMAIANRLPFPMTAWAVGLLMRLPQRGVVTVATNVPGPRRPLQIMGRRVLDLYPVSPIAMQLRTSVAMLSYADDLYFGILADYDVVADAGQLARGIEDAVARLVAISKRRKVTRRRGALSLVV
Format: biochemical, M. tuberculosis
Settings: acyl-CoA substrate, pH 6.5, 37° C., 2 h; for Km: from linear double-reciprocal plots

Compound | Vmax | Km
CCCCCCCC/C=C\CCCCCCCC(=O)SCCNC(=O)CCNC(=O)[C@H](O)C(C)(C)COP(=O)(O)OP(=O)(O)OC[C@H]1O[C@@H](n2cnc3c(N)ncnc32)[C@H](O)[C@@H]1OP(=O)(O)O [C18:1-CoA, oleoyl (C18:1)-CoA] | 1.1 nmol/mg/min | 540 µM
CCCCCCCCCCCCCCCCCCCCCCCCCC(=O)SCCNC(=O)CCNC(=O)[C@H](O)C(C)(C)COP(=O)(O)OP(=O)(O)OC[C@H]1O[C@@H](n2cnc3c(N)ncnc32)[C@H](O)[C@@H]1OP(=O)(O)O [C26:0-CoA, hexacosanoyl (C26:0)-CoA] | 2.4 nmol/mg/min | 306 µM
